These results are taken from patent US12729381B2, “Methods and compositions for inactivating interleukin-2-inducible t-cell kinase (ITK)” (priority 2020, dated 2026).

“Also recorded” adds a separate entry of the source.

Assay [1] deals with other kinases including mTOR and AKT. The assay is described as follows: Western blot of phospho-kinases in T cells cultured with commercially available ITK inhibitors. It is filed as cell-based. Conditions: mouse T cells (10n, CTA056) and human PBMC T cells (10n); pAKT, pmTOR. The text has this:
Novel peptide inhibitor SLP76pTYR specifically targets ITK signaling and enhances Treg cell development. Since T cells from SLP76Y145FKI mice can separate GVHD from GVL, we sought to determine whether disruption of ITK signaling with pharmacological agents would have a similar effect. […] Thus, we sought to design a novel inhibitor that would explicitly target the SLP76-ITK interaction and signaling by preventing the SH2 domain of ITK from docking onto SLP76 at tyrosine 145. Since evolution usually selects residues at specific protein: protein interfaces for certain properties (Pletneva et al., 2006), we analyzed the physico-chemical and structural properties of the interface of the SH2 domain and SLP76-pY145 in our quest to generate a potent inhibitor of the ITK-SH2 domain: SLP76-pY145 interaction (FIG. 17A,B). […]
(FIG. 27A) WT mouse T cells were cultured with either 10n or vehicle, then lysed post-incubation, and lysates were western blotted for pITK (size 50-75 kDa), pPLCγ1 (size ~155 kDa), PERK (size ~42 kDa), pAKT (size ~60 kDa), and pmTOR (size 240 kDa). (FIG. 27B) Western blots from three experiments were quantitated and normalized to actin. […] (FIG. 27D) Western blots from three experiments were quantitated and normalized to actin. […] (FIG. 27F) Western blots from three experiments were quantitated and normalized to β-Actin. […]
A general note: A western blot detects proteins with antibodies after separation by electrophoresis.

The target of assay [2] is S1P1 (Mus musculus, UniProt O08530). Conditions: retention of T cells in secondary lymphoid organs; cited from earlier work.
Chain of S1P1 (O08530 whole entry): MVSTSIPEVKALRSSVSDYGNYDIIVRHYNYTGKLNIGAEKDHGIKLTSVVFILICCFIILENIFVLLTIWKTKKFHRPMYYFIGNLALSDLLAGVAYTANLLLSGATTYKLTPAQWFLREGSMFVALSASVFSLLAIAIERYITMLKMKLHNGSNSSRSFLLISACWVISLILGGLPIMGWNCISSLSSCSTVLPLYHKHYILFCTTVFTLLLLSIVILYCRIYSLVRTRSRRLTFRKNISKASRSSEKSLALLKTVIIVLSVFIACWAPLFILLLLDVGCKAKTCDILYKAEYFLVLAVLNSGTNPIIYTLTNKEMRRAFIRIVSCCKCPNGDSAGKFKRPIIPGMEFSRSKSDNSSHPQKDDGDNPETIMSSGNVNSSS

For the compound `O=c1[nH]c2cc3nc(-c4ccc(-c5ccncc5)cc4)n(CCCN4CCCCC4)c3cc2nc1Cc1ccccc1` [CTA056], the “specificity for ITK / inhibition of other kinases” value in assay [1] was “also inhibit several other kinases including mTOR and AKT; also recorded: not specific for ITK”.

Regarding `CCCCCCCCc1ccc(CCC(N)(CO)CO)cc1` [FTY720], the “effect on GVHD and GVL” value in assay [2] is on record as “ameliorates GVHD while maintaining GVL effects”.

Take `CCc1ccc2nc(Nc3cc(Cc4ccccc4)nc(NC4CCC(O)CC4)n3)sc2c1` (stereo not drawn) [GSK2250665A]: the “specificity for ITK / inhibition of other kinases” value in assay [1] is “also inhibit several other kinases including mTOR and AKT”.
